Several values for one entry are separate records, joined by “and”; a condition that tells them apart may be missing. Equal entries are not always repeated.
What was measured:
[1] = test system: CypD; assay: CypD expression by Western blot
Source text: (b) CypD expression after treatment with S. tubulifera metabolites. (c) Effect of compounds on the CypD expression under oxidative stress conditions. […] Protein band expression was normalized by actin levels. Results are mean ± SEM of three replicates carried out in duplicate. Data expressed as the percentage of untreated control cells and H2O2 control. Values compared by one-way ANOVA and Dunnett’s tests. ^#p < 0.05 and ^##p < 0.01 compared to control cells. *p < 0.05 and **p < 0.01 compared to cells treated with H2O2 alone.
In this context, the expression of this protein was analyzed after treatment with compounds. CypD cytosolic levels were evaluated after treatment with 1–5 alone for 6 h and after the coaddition of diterpenes and H2O2 to get a complete insight into diterpene mitochondria-related effects.
SH-SY5Y cells were cultured in 12-well plates at 1 × 10^6 cells per well and allowed to settle down for 24 h.
Cells were washed twice with ice-cold PBS, and a hypotonic solution was added (20 mM tris–HCl pH 7.4, 10 mM NaCl, and 3 mM MgCl2, containing phosphatase and protease inhibitor cocktail). Cells were incubated for 15 min on ice and centrifuged at 3000 rpm and 4 °C for 15 min. The supernatant was collected as the cytosolic fraction, and protein concentration was quantified with the Direct Detect instrument (Merck Millipore, Darmstadt, Germany).[15]
Electrophoresis was resolved in 4–20% sodium dodecyl sulfate polyacrylamide gels (Biorad, Hercules, CA), containing 15 μg of cytosolic protein from each sample. The Trans-Blot semidry transfer cell (Biorad) was used to transfer proteins to poly(vinylidene difluoride) (PVDF) membranes (Merck Millipore). Snap i.d. system (Merck Millipore) was used for membrane blocking and antibody incubation. […] Immunoreactive bands were detected with Supersignal West Pico Luminiscent Substrate and Supersignal West Femto Maximum Sensitivity Substrate. Diversity GeneSnap system and software (Syngene, Cambridge, U.K.) were used for protein band detection. Experiments were performed three independent times in duplicate.

[2] = test system: SH-SY5Y cells; assay: ROS intracellular levels, carboxy-H2DCFDA; format: cell-based, human
Experimental: Next, the capacity of S. tubulifera metabolites to decrease ROS intracellular levels was evaluated (Figure 4). […] Regarding the oxidative stress model, H2O2 augmented the levels of oxidant molecules up to 125.1 ± 2.4% (p < 0.01) and the known antioxidant Vit E, used as a positive control, induced a reduction in ROS release of 24% with respect to cells treated only with H2O2 (p < 0.05).
Figure 4 ROS intracellular levels after treatment with compounds. Furanoditerpenes were added for 6 h in the absence and presence of 150 μM H2O2. Then, the ROS content was measured with the fluorescent dye 5-(and-6)-carboxy-2′,7′-dichlorodihydrofluorescein diacetate (carboxy-H2DCFDA). Results from (a) 1, (b) 2, (c) 3, (d) 4, and (e) 5. Vitamin E (Vit E) at 25 μM was used as a positive control. Data expressed as the percentage of untreated control cells. Mean ± SEM of three experiments performed in triplicate. Statistical differences determined by one-way ANOVA test followed by Dunnett’s post hoc test. ^##p < 0.01 compared to control cells. *p < 0.05, **p < 0.01, and ***p < 0.01 compared to H2O2 control.
(§1) For these experiments, cells were seeded in 384-well plates and treated as described above. All of the assays were carried out as previously described.[15]
The fluorescent dye 5-(and-6)-carboxy-2′,7′-dichlorodihydrofluorescein diacetate (carboxy-H2DCFDA) was used to evaluate ROS levels. After treatment with compounds and H2O2, cells were washed twice with serum-free medium. Next, cells were loaded with 20 μM carboxy-H2DCFDA dissolved in serum-free medium, and the plate was incubated for 1 h at 37 °C and 300 rpm. Then, 100 μL of PBS were added to each well for 30 min at 37 °C and 300 rpm. After this incubation, the fluorescence was read at […].

[3] = test system: SH-SY5Y cells; assay: GSH content, Thiol Tracker Violet; format: cell-based, human; settings: for GSH content: 150 μM H2O2, 6 h, % of untreated control cells
Experimental: To confirm the antioxidant properties of S. tubulifera compounds, the levels of the most important nonenzymatic antioxidant of cells, glutathione (GSH), were assessed. […] Regarding diterpene 2, an increase in the nonenzymatic antioxidant was observed when cells were cotreated with H2O2 and this compound at 0.001 and 1 μM (p < 0.05) (Figure 5b). No effects were found after the addition of 3 (Figure 5c), but 4 and 5 presented interesting results (Figure 5d,e).
Figure 5 Effect of S. tubulifera metabolites in the GSH content of human neuroblastoma cells. SH-SY5Y cells were treated with compounds for 6 h with and without 150 μM H2O2. GSH levels were monitored with Thiol Tracker Violet dye. (a) Compound 1, (b) compound 2, (c) compound 3, (d) compound 4, and (e) compound 5 results. Vitamin E (Vit E) at 25 μM was used as a positive control. Mean ± SEM of three experiments performed in triplicate. Data presented as the percentage of untreated control cells and compared by one-way ANOVA and Dunnett’s tests. ^##p < 0.01 compared to control cells. *p < 0.05 compared to cells treated with H2O2 alone.
as §1
Thiol Tracker Violet was used to measure intracellular GSH levels, following the manufacturer’s instructions. Briefly, human neuroblastoma cells were rinsed twice with PBS and the fluorescence dye at 10 μM was added. The plate was incubated for 30 min at 37 °C and 300 rpm, and the fluorescence was measured at 404 nm excitation and 526 nm emission in a plate reader. All experiments were performed three independent times in triplicate.

[4] = target: human CypD (Homo sapiens, UniProt P30405); assay: Surface plasmon resonance binding to immobilized CypD; settings: for kon: read-out: ka, CypD
Experimental: With this objective, surface plasmon resonance (SPR) experiments were performed. CypD was immobilized in the sensor surface as a ligand, and 1–5 were injected as analytes. […] For immobilization, amine groups were activated with 1-ethyl-3-(3-dimethylaminopropyl)carbodiimide hydrochloride (EDC) and N-hydroxysuccinimide (NHS) and 50 μg/mL of human CypD dissolved in 5 mM sodium acetate (pH 4.5) was added. […] All of the assays were carried out with phosphate-buffered saline (PBS)—0.05% Tween (pH 7.2) as the running buffer, with a flow rate of 20 μL/min at 24 °C.
The left panels present association curves obtained by the addition of compounds over immobilized CypD and subtraction of their respective solvent control. The right panels show fitting curves for equilibrium binding. Representative graphs of one independent replicate. […] All injections were performed using PBS, 0.05% Tween (pH 7.2) as the running buffer. Kinetic equilibrium dissociation constants (KD) and fitting curves were obtained with TraceDrawer software.
(§2) SPR measurements were performed using the MP-SPR Navi 210A VASA instrument with SPR Navi Control software (BioNavis, Tampere, Finland). All of the analyses were carried out in three-dimensional (3D) carboxymethyl dextran hydrogel-coated (CMD-3DM) sensors (BioNavis). PBS, 0.05% Tween (pH 7.2) was used as the running buffer for sensor activation, protein immobilization, and analyte injection. All buffers were degassed and filtered by 0.22 μm before use. The flow rate and temperature were set at 20 μL/min and 24 °C, respectively. A commercial Amine Coupling Kit (Xantec bioanalytics GmbH, Düsseldorf, Germany) was used for sensor activation and Cyps immobilization. The chip surface was preconditioned with 2 M NaCl and 0.01 M NaOH. Then, the surface was activated by the addition of 0.2 M 1-ethyl-3-(3-dimethylaminopropyl)carbodiimide hydrochloride (EDC) and 0.05 M N-hydroxysuccinimide (NHS). After activation, 50 μg/mL of CypA or CypD dissolved in 5 mM sodium acetate buffer (pH 4.5) were injected for immobilization on the sensor surface. […] Compound injections were performed in serial mode, and the reference channel signal was subtracted from the analyte sensorgram. Data were processed with MP-SPR Navi Data Viewer (BioNavis), and KD values were obtained using the 1:1 Langmuir model with mass transport considerations of TraceDrawer software (RidgeView Instruments Ab, Uppsala, Sweden). All of the experiments were performed three independent times.

[5] = test system: ERK; assay: ERK activation (phosphorylated/total) by Western blot; format: cell-based, human
Source text: Considering that CypD has several upstream regulators, which are also considered mPTP modulators,[10] the study was continued by evaluating if S. tubulifera metabolites were affecting the activation of two kinases involved in the control of mPTP by CypD, ERK, and GSK3β (Figure 7). Regarding ERK, its activation has been related to the inhibition of CypD-mediated mPTP opening. Therefore, the phosphorylated state of residues implicated in ERK activation (Thr202, Tyr204, Thr185, and Tyr187) was determined, as well as its total levels. Any of the compounds were able to activate ERK under neither physiological nor oxidative conditions (Figure 7a,b). However, 3 inhibited the kinase in both situations, with levels of 78.6 ± 4.8% (p < 0.05) and 67.3 ± 9.4% (p < 0.01), respectively. […] On the other hand, GSK3β inhibition results in a reduction in mPTP opening since the kinase binds to CypD, decreasing its interaction with mPTP components.[10] In the case of GSK3β, Ser9 phosphorylation was determined, a residue implicated in kinase inhibition (Figure 7c,d).
Figure 7 Analysis of compound effects on CypD upstream regulators. SH-SY5Y cells were treated with 1–5 at 0.001 μM for 6 h, and their effects on kinase activation were evaluated. […] Kinase expression was calculated as the ratio between phosphorylated and total levels. […] Data expressed as the percentage of untreated control cells and H2O2 control. […]

[6] = target: Human CypA (Homo sapiens, UniProt P62937); assay: Surface plasmon resonance binding to immobilized CypA; settings: for Kd: CypA, SPR, 1:1 Langmuir model, PBS-T pH 7.2, 24 °C; for kon: read-out: ka, CypA
Experimental: The protein was immobilized on the sensor surface by amino coupling, as described above (Figure S7), and compounds at several concentrations were added. The same conditions set for CypD were used for CypA experiments, with a flow rate of 20 μL/min and PBS-T (pH 7.2) as the running buffer.
Figure 9 Binding of compounds to CypA measured by surface plasmon resonance. The left panels present association curves obtained by the addition of compounds over immobilized CypA and subtraction of their respective vehicle signal. The right panels show fitting curves for equilibrium binding. Representative graphs of one independent replicate. […] Kinetic equilibrium dissociation constants (KD) and fitting curves were obtained with TraceDrawer software.
as §2

[7] = test system: mitochondrial permeability transition pore (mPTP); settings: 0.25 h, 0.001 µM
Experimental: (§3) SH-SY5Y cells were treated for 15 min with 1–5, and 1 mM tert-butyl hydroperoxide (TBHP) was used to open the pore. Cells were loaded with calcein-AM, which accumulates in cytosol and cell compartments and with CoCl2 that quenches cytosolic fluorescence but not the mitochondrial signal.[17] Then, fluorescence was analyzed by flow cytometry (Figure 6a). […] (a) Analysis of mPTP opening. Cells were treated with compounds at 0.001 μM for 15 min, and pore opening was induced with 1 mM TBHP. Calcein-AM and CoCl2 were used to measure mPTP aperture by flow cytometry. […] Values are presented as the percentage of control cells. Data are mean ± SEM of three independent experiments. Statistical differences determined by one-way ANOVA and Dunnett’s tests. ^###p < 0.001 compared to control cells. *p < 0.05 and **p < 0.01 compared to cells treated only with TBHP.
(§4) The inhibition of mPTP by compounds was determined with the MitoProbe Transition Pore Assay Kit, as previously described.[21] For this assay, cells were seeded in 12-well plates at 5 × 10^5 cells per well and allowed to grow for 24 h. Then, SH-SY5Y cells were detached with Detachin solution (Genlatis, San Diego), washed with PBS, and resuspended in PBS buffer with 0.6 mM CaCl2. Cells were loaded with 0.01 μM calcein-AM and incubated at 37 °C for 15 min. Then, 0.4 mM CoCl2 and compounds at 0.001 μM were added and cells were incubated for 15 min at 37 °C. After this incubation, cells were centrifuged, resuspended in 100 μL of calcium-free PBS, and kept on ice. Finally, TBHP at 1 mM was added for 3 min to the cells to induce the pore opening. […] The fluorescence of 10 000 events was analyzed with IDEAS Application vs 6.0 (Amnis Corporation, Luminex Corp).

[8] = test system: mitochondrial permeability transition pore (mPTP); assay: mPTP opening, calcein-AM/CoCl2 flow cytometry; settings: 0.001 μM, 15 min pretreatment, TBHP 3 min
Experimental: as §3, §4

Sequence of Human CypA (P62937 whole entry): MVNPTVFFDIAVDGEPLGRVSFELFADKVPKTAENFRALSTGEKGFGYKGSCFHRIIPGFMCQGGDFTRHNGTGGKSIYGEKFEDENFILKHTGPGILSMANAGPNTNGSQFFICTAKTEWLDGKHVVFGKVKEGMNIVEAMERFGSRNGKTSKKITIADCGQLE
Sequence of human CypD (P30405 30-207): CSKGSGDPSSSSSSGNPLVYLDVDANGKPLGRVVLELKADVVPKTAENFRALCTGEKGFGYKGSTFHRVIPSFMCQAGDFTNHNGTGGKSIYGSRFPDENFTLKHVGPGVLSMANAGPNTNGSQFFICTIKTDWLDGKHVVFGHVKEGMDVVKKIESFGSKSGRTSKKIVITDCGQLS

Compound | effect on CypD expression ([1]; 0.001 μM) | effect on ROS content ([2]; cotreatment with 150 μM H2O2, 6 h, all four concentrations 0.001-1 μM) | effect on GSH content ([3]; compound alone and with 150 μM H2O2, 6 h) | Kd [4] [µM] | kon [4] [M⁻¹ s⁻¹] | ERK activation (phosphorylated/total) ([5]; compound 0.001 μM + 150 μM H2O2, 6 h, % of H2O2 control) [%] | ERK activation (phosphorylated/total) ([5]; compound alone 0.001 μM, 6 h, % of untreated control cells) [%] | Kd [6] | kon [6] [M⁻¹ s⁻¹] | CypD expression under oxidative damage ([1]; compound 0.001 μM + 150 μM H2O2, 6 h, % of H2O2 control cells) | GSH content ([3]; compound 0.001 μM) [%] | GSH content ([3]; compound 0.1 μM) [%] | calcein fluorescence (mPTP opening) [7] [%] | selectivity between CypD and CypA (KD values) ([4]; SPR, CypD versus CypA) | inhibition of mPTP opening after oxidative injury [8] | maximum SPR signal, CypA [6] [mdeg] | reduction in ROS release with respect to cells treated only with H2O2 ([2]; Vit E 25 μM, 150 μM H2O2, 6 h) [%]
CC1=C(O)C(=O)C[C@]2(C)[C@H]3CCc4cocc4[C@]3(C)CC[C@@H]12 [Compound 3] | did not affect CypD expression | diminished ROS levels | No effects | 7 ± 0.04 | 3750 | 67.3 ± 9.4 | 78.6 ± 4.8 | 6.39 µM and 6.4 µM | 3190 | – | – | – | – | – | – | – | –
C[C@]12C=C(O)C(=O)[C@](C)(CO)[C@@H]1CC[C@@]1(C)c3cocc3CC[C@H]21 [Compound 5, spongian diterpene 17] | – | – | – | 2.97 ± 0.01 | 10000 | – | – | 4.34 µM and 4.3 µM | 3590 | about 54% | 110.9 ± 10.0 | 118.9 ± 12.0 | 90.3 ± 5.3 | selectivity toward the mitochondrial isoform | able to inhibit mPTP opening | 13.6 | –
Vitamin E [Vit E, reference compound] | – | – | – | – | – | – | – | – | – | – | – | – | – | – | – | – | 24
